SMILES strings stand for the structures.

Here are results for 29 molecules from patent US20080221095A1, “Metalloprotease inhibitors containing a heterocyclic moiety” (priority 2007, published 2008).

What all share (assay type): biochemical
Assay [1] concerns the target T1, catalytic domain of MMP-13 enzyme (Homo sapiens, UniProt P45452).
T1 construct: 50 nM stock solution of catalytic domain of MMP-13 enzyme; purchased Invitek (Berlin) 30100812
In words: Assay for determining MMP-13 inhibition (fluorescent substrate). The following applies: read-out: MMP-13 Activity (IC50 MMP-13), Group. On the procedure:
Assay for Determining MMP-13 Inhibition
The typical assay for MMP-13 activity is carried out in assay buffer comprised of 50 mM Tris, pH 7.5, 150 mM NaCl, 5 mM CaCl2 and 0.05% Brij-35. Different concentrations of tested compounds are prepared in assay buffer in 50 μL aliquots. 10 μL of a 50 nM stock solution of catalytic domain of MMP-13 enzyme (produced by Alantos or commercially available from Invitek (Berlin), Cat.#30100812) is added to the compound solution. The mixture of enzyme and compound in assay buffer is thoroughly mixed and incubated for 10 min at room temperature. Upon the completion of incubation, the assay is started by addition of 40 μL of a 12.5 μM stock solution of MMP-13 fluorescent substrate (Calbiochem, Cat. No. 444235). The time-dependent increase in fluorescence is measured at the 320 nm excitation and 390 nm emission by automatic plate multireader. The IC50 values are calculated from the initial reaction rates.

Another assay concerns the target T2, activated MMP-8 enzyme (Homo sapiens, UniProt P22894).
T2 construct: purchased Calbiochem 444229
In words: Assay for determining MMP-8 inhibition (fluorescent substrate). As to conditions: read-out: MMP-8 Activity (IC50 MMP-8), Group. On the procedure: Assay for Determining MMP-8 Inhibition
The typical assay for MMP-8 activity is carried out in assay buffer comprised of 50 mM Tris, pH 7.5, 150 mM NaCl, 5 mM CaCl2 and 0.05% Brij-35. Different concentrations of tested compounds are prepared in assay buffer in 50 μL aliquots. 10 μL of a 50 nM stock solution of activated MMP-8 enzyme (Calbiochem, Cat. No. 444229) is added to the compound solution. The mixture of enzyme and compound in assay buffer is thoroughly mixed and incubated for 10 min at 37° C. Upon the completion of incubation, the assay is started by addition of 40 μL of a 10 μM stock solution of OmniMMP fluorescent substrate (Biomol, Cat. No. P-126). The time-dependent increase in fluorescence is measured at the 320 nm excitation and 390 nm emission by an automatic plate multireader at 37° C. The IC50 values are calculated from the initial reaction rates.

Assay [2] deals with T3, catalytic domain of MMP-3 enzyme (Homo sapiens, UniProt P08254).
T3 construct: 100 nM stock solution of the catalytic domain of MMP-3 enzyme (Biomol, Cat. No. SE-1 09); purchased Biomol SE-1 09
In words: Assay for determining MMP-3 inhibition (fluorescent substrate). The following applies: read-out: MMP-3 Activity (IC50 MMP-3), Group. On the procedure:
Assay for Determining MMP-3 Inhibition
The typical assay for MMP-3 activity is carried out in assay buffer comprised of 50 mM MES, pH 6.0, 10 mM CaCl2 and 0.05% Brij-35. Different concentrations of tested compounds are prepared in assay buffer in 50 μL aliquots. 10 μL of a 100 nM stock solution of the catalytic domain of MMP-3 enzyme (Biomol, Cat. No. SE-1 09) is added to the compound solution. The mixture of enzyme and compound in assay buffer is thoroughly mixed and incubated for 10 min at room temperature. Upon the completion of incubation, the assay is started by addition of 40 μL of a 12.5 μM stock solution of NFF-3 fluorescent substrate (Calbiochem, Cat. No. 480455). The time-dependent increase in fluorescence is measured at the 330 nm excitation and 390 nm emission by an automatic plate multireader. The IC50 values are calculated from the initial reaction rates.

T3 sequence (P08254 100-272 limits assumed): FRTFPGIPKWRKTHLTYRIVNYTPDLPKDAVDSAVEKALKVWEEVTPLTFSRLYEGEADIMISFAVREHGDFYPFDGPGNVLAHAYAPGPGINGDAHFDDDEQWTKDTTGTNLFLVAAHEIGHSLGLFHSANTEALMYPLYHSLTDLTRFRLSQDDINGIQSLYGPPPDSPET
T2 sequence (P22894 101-467): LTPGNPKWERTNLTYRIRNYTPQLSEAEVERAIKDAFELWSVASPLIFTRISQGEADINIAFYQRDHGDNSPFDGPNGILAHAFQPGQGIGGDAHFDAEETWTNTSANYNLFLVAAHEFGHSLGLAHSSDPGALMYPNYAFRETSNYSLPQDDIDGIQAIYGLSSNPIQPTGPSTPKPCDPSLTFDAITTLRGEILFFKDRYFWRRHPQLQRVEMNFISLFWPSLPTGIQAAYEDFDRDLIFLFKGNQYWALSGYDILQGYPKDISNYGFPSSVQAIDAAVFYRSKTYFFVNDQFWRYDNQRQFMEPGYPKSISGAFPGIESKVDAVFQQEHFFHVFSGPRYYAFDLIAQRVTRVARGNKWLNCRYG

One may read the IC50 as the concentration needed to halve the response being measured. For the molecule `O=C1COc2ccc(CNC(=O)c3nc(-c4ccccc4)cc(=O)[nH]3)cc2N1` [1/1], the IC50 in assay [1] is 100 to 20000 nM.

Turning to `Cc1nc(C(=O)NCc2ccc3c(c2)NC(=O)CO3)[nH]c(=O)c1C` [1/2], the IC50 in assay [1] is less than 100 nM.

For the molecule `O=C1COc2ccc(CNC(=O)c3nc4ccccc4c(=O)[nH]3)cc2N1` [1/4], the IC50 in assay [1] is less than 100 nM; on activated MMP-8 enzyme, less than 250 nM; in assay [2], less than 250 nM.

Consider `CC(NC(=O)c1nc2ccccc2c(=O)[nH]1)c1ccc2c(c1)NC(=O)CO2` (stereo not drawn) [1/5], for which the IC50 in assay [1] was 100 to 20000 nM.

As for `CC1Oc2ccc(CNC(=O)c3nc4ccccc4c(=O)[nH]3)cc2NC1=O` (stereo not drawn) [1/6], the IC50 in assay [1] is less than 100 nM; on activated MMP-8 enzyme, 250 to 20000 nM.

`Cn1c(=O)oc2ccc(CNC(=O)c3nc4ccccc4c(=O)[nH]3)cc21` [1/7]: the figures for the IC50 (in assay [1]; on activated MMP-8 enzyme) were less than 100 nM and 250 to 20000 nM, respectively.

Regarding `CN1C(=O)COc2ccc(CNC(=O)c3nc4ccccc4c(=O)[nH]3)cc21` [1/8], the values for the IC50 (in assay [1]; on activated MMP-8 enzyme) were 100 to 20000 nM and 250 to 20000 nM, respectively.

As for `Cc1csc2nc(C(=O)NCc3ccc4c(c3)NC(=O)CO4)[nH]c(=O)c12` [1/9], the IC50 is less than 100 nM in assay [1], less than 250 nM on activated MMP-8 enzyme and less than 250 nM in assay [2].

Regarding `O=C1COc2c(F)cc(CNC(=O)c3nc4ccccc4c(=O)[nH]3)cc2N1` [1/10], in assay [1], the IC50 was less than 100 nM.

For `O=C1COc2c(F)cc(CNC(=O)c3nc4ccc(F)cc4c(=O)[nH]3)cc2N1` [1/11], the IC50 in assay [1] was less than 100 nM.

Consider `Cc1sc2nc(C(=O)NCc3cc(F)c4c(c3)NC(=O)CO4)[nH]c(=O)c2c1C` [1/12], for which the IC50 was less than 100 nM in assay [1] and less than 250 nM at activated MMP-8 enzyme.

For the molecule `O=C1COc2ncc(CNC(=O)c3nc4ccccc4c(=O)[nH]3)cc2N1` [1/13], in assay [1], the IC50 was in the range of 100 to 20000 nM.

With `Cc1sc2nc(C(=O)NCc3cnc4c(c3)NC(=O)CO4)[nH]c(=O)c2c1C` [1/15], the IC50 in assay [1] is less than 100 nM; on activated MMP-8 enzyme, 250 to 20000 nM.

As for `O=C(NCc1ccc2c(c1)NC(=S)CO2)c1nc2ccccc2c(=O)[nH]1` [1/16], the IC50 in assay [1] was less than 100 nM; on activated MMP-8 enzyme it was 250 to 20000 nM.

Turning to `Cc1sc2nc(C(=O)NCc3ccc4c(c3)NC(=S)CO4)[nH]c(=O)c2c1C` [1/17], the IC50 is less than 100 nM in assay [1] and less than 250 nM at activated MMP-8 enzyme.

On to `O=C(NCc1ccc2c(c1)-n1cnnc1CO2)c1nc2ccccc2c(=O)[nH]1` [1/18], for which, in assay [1], the IC50 was less than 100 nM.

Consider `Cc1sc2nc(C(=O)NCc3ccc4c(c3)-n3cnnc3CO4)[nH]c(=O)c2c1C` [1/19], for which, in assay [1], the 50% inhibitory concentration (IC50) was less than 100 nM.

For the molecule `O=C1COc2ccc(CNC(=O)c3nc4ccc(F)cc4c(=O)[nH]3)c(F)c2N1` [1/23], the 50% inhibitory concentration (IC50) in assay [1] was in the range of 100 to 20000 nM.

As to `Cc1sc2nc(C(=O)NCc3ccc4c(c3F)NC(=O)CO4)[nH]c(=O)c2c1C` [1/24], in assay [1], the IC50 is 100 to 20000 nM.

For `O=C1COc2cc(F)c(CNC(=O)c3nc4ccccc4c(=O)[nH]3)cc2N1` [1/25], the IC50 in assay [1] was less than 100 nM.

With `Cc1sc2nc(C(=O)NCc3cc4c(cc3F)OCC(=O)N4)[nH]c(=O)c2c1C` [1/26], the IC50 is less than 100 nM in assay [1] and 250 to 20000 nM at activated MMP-8 enzyme.

As for `O=C1COc2c(F)c(F)cc(CNC(=O)c3nc4ccccc4c(=O)[nH]3)c2N1` [1/27], in assay [1], the IC50 lay within 100 to 20000 nM.

Turning to `CC1N=C(C(=O)NCc2ccc3c(c2)NC(=O)CO3)NC(=O)C1c1ccccc1` (stereo not drawn) [1/29], the IC50 in assay [1] is less than 100 nM; in assay [2], 250 to 20000 nM.

Take `O=C(NCc1ccc2c(c1)-n1c(noc1=O)CO2)c1nc2ccccc2c(=O)[nH]1` [1/30]: the IC50 in assay [1] lay in the range of 100 to 20000 nM.

As to `O=C1COc2ccc(CNC(=O)c3nc4sc5c(c4c(=O)[nH]3)CCC3(C5)OCCO3)cc2N1` [1/32], the results for the IC50 (in assay [1]; at activated MMP-8 enzyme; in assay [2]) were less than 100 nM, less than 250 nM and less than 250 nM, respectively.

Regarding `O=C1COc2ccc(CNC(=O)c3ncc(-c4ccc(F)cc4)c(=O)[nH]3)cc2N1` [1/33], the IC50 in assay [1] was less than 100 nM.

For the molecule `Cc1ccc2nc(NC(=O)Cc3ccc4c(c3)NC(=O)CO4)[nH]c(=O)c2c1` [1/34], in assay [1], the 50% inhibitory concentration (IC50) was in the range of 100 to 20000 nM.

In the case of `O=C1COc2ccc(CNC(=O)c3nc4sc5c(c4c(=O)[nH]3)CCC3(CCN(C(=O)OCc4ccccc4)CC3)C5)cc2N1` [Example 1], the half-inhibitory concentration (IC50) in assay [1] was 100 to 20000 nM.

As to `O=C1COc2ccc(CNC(=O)c3nc4c(c(=O)[nH]3)C3CCC4CC3)cc2N1` [Example 3], the IC50 was less than 100 nM in assay [1] and less than 250 nM at activated MMP-8 enzyme.
